Experimental data: patent US20240228469A1, “PCSK9 INHIBITORS AND METHODS OF USE THEREOF” (AstraZeneca AB, priority 2022, published 2024)

Legend:
[1] = biological target: GSK3β (Glycogen synthase kinase-3 beta) (Homo sapiens, UniProt P49841); test: Assay 6 GSK3β assay (ThermoFisher Z-Lyte FRET); type: biochemical; details: ATP Conc: 10 μM, geometric mean; read-out: Assay 6 (GSK3β FRET-Z-Lyte Cr) GMean IC50
Procedure, shortened: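 Z-Lyte FRET: 0.22-0.92 ng kinase with 2 μM Ser/Thr 09 peptide in HEPES pH 7.5, MgCl2, EGTA, 60 min at room temperature, then 60 min development. Compounds in 1% DMSO, 10-point 3-fold series from 10 μM; sigmoidal dose-response fit.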

[2] = biological target: T1, potassium ion channel hERG (Homo sapiens, UniProt Q12809); test: Assay 5 hERG assay (patch clamp, CHO cells over-expressing hERG); type: cell-based; details: SyncroPatch 384PE, room temperature, geometric mean, read-out: Assay 5 (hERG Hu CHO if EPh CR-Syncro) GMean IC50
T1 construct: expressed in transfected cells; host or cells: Chinese hamster ovary K1 (CHO)
Procedure, shortened: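 hERG currents recorded by automated patch clamp at room temperature in CHO-K1 cells, 6-point cumulative concentrations. SyncroPatch runs used KF-based internal (pH 7.2) and NMDG-containing external solution (pH 7.4), 0.33% DMSO; QPatchII runs used 2% or 0.4% DMSO. Only wells meeting seal-resistance and current-size criteria kept.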

PCSK9 [3] = biological target: T2, PCSK9 (Homo sapiens, UniProt Q8NBP7, G670E/V474I); test: biochemical
PCSK9 [4] = biological target: T2, PCSK9; test: Assay 3 PCSK9 LDL-C uptake assay in HepG2 cells; type: cell-based; parameters: TEV site (C); His6 (C); host or cells: added to HepG2 (ATCC #HB-8065); details: 125 nM PCSK9, pHrodo Red-LDL, read-out: Assay 3 LDL uptake potency
Procedure, shortened: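 HepG2 cells were plated for 24 h, then exposed for 24 h at 37 °C to compounds (half-log series, 10 μM top) with 125 nM exogenous PCSK9. pHrodo Red-LDL ([…]) uptake was then imaged by fluorescence at 4 h and 24 h. Signal was normalized as % effect between DMSO and 100 nM evolocumab, with a four-parameter logistic fit.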

T2 sequence (Q8NBP7 with tags, fused parts or gaps V474I/G670E): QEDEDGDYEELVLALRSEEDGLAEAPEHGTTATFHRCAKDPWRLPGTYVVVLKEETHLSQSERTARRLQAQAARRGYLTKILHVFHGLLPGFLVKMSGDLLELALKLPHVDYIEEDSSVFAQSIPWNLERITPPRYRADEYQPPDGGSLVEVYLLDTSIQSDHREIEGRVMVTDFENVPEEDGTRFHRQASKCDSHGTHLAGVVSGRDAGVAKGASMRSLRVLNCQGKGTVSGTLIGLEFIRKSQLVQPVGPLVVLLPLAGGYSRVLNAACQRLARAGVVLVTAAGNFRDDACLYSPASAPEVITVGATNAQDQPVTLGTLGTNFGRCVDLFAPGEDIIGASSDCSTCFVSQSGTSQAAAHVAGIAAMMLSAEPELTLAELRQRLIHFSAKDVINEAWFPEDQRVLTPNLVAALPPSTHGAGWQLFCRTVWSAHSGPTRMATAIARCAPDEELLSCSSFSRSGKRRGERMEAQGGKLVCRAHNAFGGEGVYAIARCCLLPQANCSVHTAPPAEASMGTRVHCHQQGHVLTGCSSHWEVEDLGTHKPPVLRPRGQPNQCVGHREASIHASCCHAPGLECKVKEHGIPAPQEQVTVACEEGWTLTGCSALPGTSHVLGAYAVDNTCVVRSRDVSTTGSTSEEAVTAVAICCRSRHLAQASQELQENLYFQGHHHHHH
Chain of GSK3β (Glycogen synthase kinase-3 beta) (P49841 whole entry): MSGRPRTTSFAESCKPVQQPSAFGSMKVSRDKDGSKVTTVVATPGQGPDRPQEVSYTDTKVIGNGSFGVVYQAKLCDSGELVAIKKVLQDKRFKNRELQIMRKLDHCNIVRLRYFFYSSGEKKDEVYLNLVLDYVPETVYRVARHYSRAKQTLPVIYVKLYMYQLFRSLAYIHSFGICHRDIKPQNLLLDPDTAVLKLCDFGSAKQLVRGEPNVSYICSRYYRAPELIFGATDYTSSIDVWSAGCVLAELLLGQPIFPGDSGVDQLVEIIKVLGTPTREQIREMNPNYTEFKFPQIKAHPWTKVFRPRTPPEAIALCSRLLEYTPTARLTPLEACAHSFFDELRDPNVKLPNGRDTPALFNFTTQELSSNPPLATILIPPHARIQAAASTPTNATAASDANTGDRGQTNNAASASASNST
T1 sequence (Q12809 whole entry): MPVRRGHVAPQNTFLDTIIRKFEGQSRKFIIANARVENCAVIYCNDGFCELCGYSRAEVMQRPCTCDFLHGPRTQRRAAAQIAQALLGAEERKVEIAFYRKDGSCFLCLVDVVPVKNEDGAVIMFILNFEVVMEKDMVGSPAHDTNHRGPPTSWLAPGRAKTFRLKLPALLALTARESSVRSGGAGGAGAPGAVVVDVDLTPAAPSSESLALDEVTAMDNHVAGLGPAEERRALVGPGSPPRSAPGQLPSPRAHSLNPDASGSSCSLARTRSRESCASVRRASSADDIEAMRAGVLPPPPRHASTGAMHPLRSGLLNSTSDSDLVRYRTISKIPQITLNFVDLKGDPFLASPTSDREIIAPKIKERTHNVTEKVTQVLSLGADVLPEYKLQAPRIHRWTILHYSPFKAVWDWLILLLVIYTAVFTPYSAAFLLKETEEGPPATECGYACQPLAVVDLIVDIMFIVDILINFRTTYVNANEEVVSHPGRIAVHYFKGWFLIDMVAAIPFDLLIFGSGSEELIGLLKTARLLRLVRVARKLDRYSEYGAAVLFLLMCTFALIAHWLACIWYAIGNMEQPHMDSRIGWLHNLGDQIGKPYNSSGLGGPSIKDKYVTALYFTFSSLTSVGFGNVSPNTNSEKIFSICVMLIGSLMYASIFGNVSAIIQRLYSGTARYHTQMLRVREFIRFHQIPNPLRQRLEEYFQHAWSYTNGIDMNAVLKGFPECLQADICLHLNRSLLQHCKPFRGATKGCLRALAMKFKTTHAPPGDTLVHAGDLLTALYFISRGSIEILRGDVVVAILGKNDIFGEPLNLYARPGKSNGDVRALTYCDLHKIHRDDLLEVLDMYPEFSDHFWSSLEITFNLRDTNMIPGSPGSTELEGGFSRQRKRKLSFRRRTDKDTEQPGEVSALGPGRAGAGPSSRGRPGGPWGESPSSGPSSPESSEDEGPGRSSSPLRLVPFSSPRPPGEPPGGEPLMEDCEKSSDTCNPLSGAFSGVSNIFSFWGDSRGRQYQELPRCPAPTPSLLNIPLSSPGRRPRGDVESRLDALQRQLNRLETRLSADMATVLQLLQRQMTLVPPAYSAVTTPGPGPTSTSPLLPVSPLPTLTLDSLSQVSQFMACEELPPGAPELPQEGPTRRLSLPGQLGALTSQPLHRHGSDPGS

Compound	IC50 [1] [µM]	IC50 [2] [µM]	IC50 (PCSK9 [3]) [µM]	EC50 (PCSK9 [4]) [µM]
O=c1ccccn1-c1ccc(N[C@H]2CC[C@H](Nc3ncc(C4CC4)nn3)C2)nc1 [Example 50, 6′-(((1S,3S)-3-((6-Cyclopropyl-1,2,4-triazin-3-yl)amino)cyclopentyl)amino)-2H-[1,3′-bipyridin]-2-one]	> 10	> 40	0.008	0.3
O=c1c(C(F)(F)F)cccn1-c1ccc(N[C@H]2CC[C@H](Nc3ncc(C4CC4)nn3)C2)nc1 [Example 51, 6′-(((1S,3S)-3-((6-Cyclopropyl-1,2,4-triazin-3-yl)amino)cyclopentyl)amino)-3-(trifluoromethyl)-2H-[1,3′-bipyridin]-2-one]	> 10	10.8	0.0018	0.1
O=c1c(OC(F)(F)F)cccn1-c1ccc(N[C@H]2CC[C@H](Nc3ncc(C4CC4)nn3)C2)nc1 [Example 52, 6′-(((1S,3S)-3-((6-Cyclopropyl-1,2,4-triazin-3-yl)amino)cyclopentyl)amino)-3-(trifluoromethoxy)-2H-[1,3′-bipyridin]-2-one]	> 10	39.9	0.0023	0.1
O=c1c(Cl)cccn1-c1ccc(N[C@H]2CC[C@H](Nc3ncc(C4CC4)nn3)C2)nc1 [Example 55, 3-Chloro-6′-(((1S,3S)-3-((6-cyclopropyl-1,2,4-triazin-3-yl)amino)cyclopentyl)amino)-2H-[1,3′-bipyridin]-2-one]	1.6	30.3	0.001	0.1
N#Cc1ccc(=O)n(-c2ccc(N[C@H]3CC[C@H](Nc4ncc(C5CC5)nn4)C3)nc2)c1 [Example 56, 6′-(((1S,3S)-3-((6-Cyclopropyl-1,2,4-triazin-3-yl)amino)cyclopentyl)amino)-2-oxo-2H-[1,3′-bipyridine]-5-carbonitrile]	> 10	34.9	0.009	0.3
CN1CC(=O)N(c2ccc(N[C@H]3CC[C@H](Nc4ncc(C5CC5)nn4)C3)nc2)C1=O [Example 57, 3-(6-(((1S,3S)-3-((6-Cyclopropyl-1,2,4-triazin-3-yl)amino)cyclopentyl)amino)pyridin-3-yl)-1-methylimidazolidine-2,4-dione]	> 10	> 40	0.011	0.5
N#Cc1cccn(-c2ccc(N[C@H]3CC[C@H](Nc4ncc(C5CC5)nn4)C3)nc2)c1=O [Example 58, 6′-(((1S,3S)-3-((6-Cyclopropyl-1,2,4-triazin-3-yl)amino)cyclopentyl)amino)-2-oxo-2H-[1,3′-bipyridine]-3-carbonitrile]	> 10	> 40	0.0016	0.1
CN1C(=O)CN(c2ccc(N[C@H]3CC[C@H](Nc4ncc(C5CC5)nn4)C3)nc2)C1=O [Example 62, 1-(6-(((1S,3S)-3-((6-Cyclopropyl-1,2,4-triazin-3-yl)amino)cyclopentyl)amino)pyridin-3-yl)-3-methylimidazolidine-2,4-dione]	> 10	36.3	0.0065	0.3
Cn1c(=O)n(-c2ccc(N[C@H]3CC[C@H](Nc4ncc(C5CC5)nn4)C3)nc2)c2ncccc21 [Example 63, 3-(6-(((1S,3S)-3-((6-Cyclopropyl-1,2,4-triazin-3-yl)amino)cyclopentyl)amino)pyridin-3-yl)-1-methyl-1,3-dihydro-2H-imidazo[4,5-b]pyridin-2-one]	> 10	> 40		0.1
COc1cccn(-c2ccc(N[C@H]3CC[C@H](Nc4ncc(C5CC5)nn4)C3)nc2)c1=O [Example 64, 6′-(((1S,3S)-3-((6-Cyclopropyl-1,2,4-triazin-3-yl)amino)cyclopentyl)amino)-3-methoxy-2H-[1,3′-bipyridin]-2-one]	0.385	> 40	0.0015	0.2
COc1ccc(=O)n(-c2ccc(N[C@H]3CC[C@H](Nc4ncc(C5CC5)nn4)C3)nc2)c1 [Example 65, 6′-(((1S,3S)-3-((6-Cyclopropyl-1,2,4-triazin-3-yl)amino)cyclopentyl)amino)-5-methoxy-2H-[1,3′-bipyridin]-2-one]	0.014	38.8	0.0118	0.5
Cc1cccn(-c2ccc(N[C@H]3CC[C@H](Nc4ncc(C5CC5)nn4)C3)nc2)c1=O [Example 66, 6′-(((1S,3S)-3-((6-Cyclopropyl-1,2,4-triazin-3-yl)amino)cyclopentyl)amino)-3-methyl-2H-[1,3′-bipyridin]-2-one]	> 10	> 40	0.0017	0.1
Cc1cnc(N[C@H]2CC[C@H](Nc3ccc(-n4ccccc4=O)cn3)C2)nn1 [Example 67, 6′-(((1S,3S)-3-((6-Methyl-1,2,4-triazin-3-yl)amino)cyclopentyl)amino)-2H-[1,3′-bipyridin]-2-one]	2.1	> 40	0.016	0.6
C#CCNC(=O)c1cnc(N[C@H]2CC[C@H](Nc3ccc(-n4ccccc4=O)cn3)C2)nn1 [Example 69, 3-(((1S,3S)-3-((2-Oxo-2H-[1,3′-bipyridin]-6′-yl)amino)cyclopentyl)amino)-N-(prop-2-yn-1-yl)-1,2,4-triazine-6-carboxamide]	> 10	> 40	0.02	0.2
O=C(NC1COC1)c1cnc(N[C@H]2CC[C@H](Nc3ccc(-n4ccccc4=O)cn3)C2)nn1 [Example 70, N-(Oxetan-3-yl)-3-(((1S,3S)-3-((2-oxo-2H-[1,3′-bipyridin]-6′-yl)amino)cyclopentyl)amino)-1,2,4-triazine-6-carboxamide]	> 10	> 40	0.019	0.2
CNC(=O)c1cnc(N[C@H]2CC[C@H](Nc3ccc(-n4ccccc4=O)cn3)C2)nn1 [Example 75, N-Methyl-3-(((1S,3S)-3-((2-oxo-2H-[1,3′-bipyridin]-6′-yl)amino)cyclopentyl)amino)-1,2,4-triazine-6-carboxamide]	> 10	> 40	0.033	0.7
O=c1ccc(Cl)cn1-c1ccc(N[C@H]2CC[C@H](Nc3ncc(C4CC4)nn3)C2)nc1 [Example 112, 5-Chloro-6′-(((1S,3S)-3-((6-cyclopropyl-1,2,4-triazin-3-yl)amino)cyclopentyl)amino)-2H-[1,3′-bipyridin]-2-one]	6.4	> 40.1	0.0047	0.2
O=c1ccncn1-c1ccc(N[C@H]2CC[C@H](Nc3ncc(C4CC4)nn3)C2)nc1 [Example 114, 3-(6-(((1S,3S)-3-((6-Cyclopropyl-1,2,4-triazin-3-yl)amino)cyclopentyl)amino)pyridin-3-yl)pyrimidin-4(3H)-one]	> 10	18.6	0.0076	0.3
Cn1c(=O)n(-c2ccc(N[C@H]3CC[C@H](Nc4ncc(C5CC5)nn4)C3)nc2)c2cc(C#N)ccc21 [Example 116, 3-(6-(((1S,3S)-3-((6-Cyclopropyl-1,2,4-triazin-3-yl)amino)cyclopentyl)amino)pyridin-3-yl)-1-methyl-2-oxo-2,3-dihydro-1H-benzo[d]imidazole-5-carbonitrile]	> 10	12	0.0007	0.1
Cn1c(=O)n(-c2ccc(N[C@H]3CC[C@H](Nc4ncc(C5CC5)nn4)C3)nc2)c2ccc(C#N)cc21 [Example 117, 1-(6-(((1S,3S)-3-((6-Cyclopropyl-1,2,4-triazin-3-yl)amino)cyclopentyl)amino)pyridin-3-yl)-3-methyl-2-oxo-2,3-dihydro-1H-benzo[d]imidazole-5-carbonitrile]	> 10	6.3	0.001	0.3
O=c1cccnn1-c1ccc(N[C@H]2CC[C@H](Nc3ncc(C4CC4)nn3)C2)nc1 [Example 118]	> 10	> 40	0.0074	0.5
Cn1c(=O)n(-c2ccc(N[C@H]3CC[C@H](Nc4ncc(C5CC5)nn4)C3)nc2)c2ccc(C(=O)O)cc21 [Example 121, 1-(6-(((1S,3S)-3-((6-Cyclopropyl-1,2,4-triazin-3-yl)amino)cyclopentyl)amino)pyridin-3-yl)-3-methyl-2-oxo-2,3-dihydro-1H-benzo[d]imidazole-5-carboxylic acid]	5.05	> 40	0.001	0.1
Cc1cnc(N[C@H]2CC[C@H](Nc3ccc(-n4cc(C#N)ccc4=O)cn3)C2)nn1 [Example 128, 6′-(((1S,3S)-3-((6-Methyl-1,2,4-triazin-3-yl)amino)cyclopentyl)amino)-2-oxo-2H-[1,3′-bipyridine]-5-carbonitrile]	> 10	> 40	0.02	0.8
